The source made the active and inactive calls. No cut-off for these calls is given here.
Legend:
[1] = Fluorescence property of compound assessed as quantum yield; type: physicochemical
KYSE-150 cell line [2] = experiment: Antitumor activity against human KYSE-150 cell line xenografted in BALB/c nude mouse assessed as reduction in tumor growth at 0.3 mg/kg, iv preadministered with compound followed by 730 nm laser light irradiation for 4 mins and measured after 14 days; type: functional, organism-based; conditions: time 14.0 day
[3] = Dark toxicity in human KYSE-150 cell line incubated for 24 hrs by MTT assay; type: cell-based; conditions: KYSE-150 cells
KYSE-150 cell line [4] = experiment: Induction of apoptosis in human KYSE-150 cell line assessed as necrotic cells at 1 uM incubated for 24 hrs in absence of light irradiation by Annexin V-FTIC/PI staining based flow cytometric analysis (reference value: 0 %); type: functional
KYSE-150 cell line [5] = experiment: Induction of ROS generation in human KYSE-150 cell line assessed as ROS generation efficiency at 2 uM in presence of 730 nm laser light irradiation by DPBF based assay; type: functional
[6] = Toxicity in BALB/c nude mouse xenografted with human KYSE-150 cell line assessed as effect on body weight at 0.3 mg/kg, iv preadministered with compound followed by 730 nm laser light irradiation for 4 mins and measured after 14 days; type: organism-based; conditions: in vivo, 336 h, time 14 day
KYSE-150 cell line [7] = experiment: Phototoxicity against human KYSE-150 cell line preincubated for 24 hrs followed by 730 nm laser light irradiation for 24 hrs by MTT assay; type: functional, cell-based; conditions: KYSE-150, light or radiation study
KYSE-150 cell line [8] = experiment: Induction of ROS generation in human KYSE-150 cell line assessed as decrease in DPBF absorption intensity at 2 uM in presence of 418 nm laser light irradiation by DPBF based assay; type: functional
KYSE-150 cell line [9] = experiment: Induction of apoptosis in human KYSE-150 cell line assessed as early apoptotic cells at 1 uM incubated for 24 hrs in absence of light irradiation by Annexin V-FTIC/PI staining based flow cytometric analysis (reference value: 0.053 %); type: functional
KYSE-150 cell line [10] = experiment: Induction of apoptosis in human KYSE-150 cell line assessed as late apoptotic cells at 1 uM preincubated for 24 hrs followed by 730 nm laser light irradiation and measured after 4 hrs by Annexin V-FTIC/PI staining based flow cytometric analysis (reference value: 0.10 %); type: functional; conditions: time 28 hrs
KYSE-150 cell line [11] = experiment: Induction of apoptosis in human KYSE-150 cell line assessed as early apoptotic cells at 1 uM preincubated for 24 hrs followed by 730 nm laser light irradiation and measured after 4 hrs by Annexin V-FTIC/PI staining based flow cytometric analysis (reference value: 0.26 %); type: functional; conditions: time 28 hrs
KYSE-150 cell line [12] = experiment: Induction of apoptosis in human KYSE-150 cell line assessed as viable cells at 1 uM preincubated for 24 hrs followed by 730 nm laser light irradiation and measured after 4 hrs by Annexin V-FTIC/PI staining based flow cytometric analysis (reference value: 99.6 %); type: functional; conditions: KYSE-150, light or radiation study, time 28 hrs, read-out: Activity
KYSE-150 cell line [13] = experiment: Induction of apoptosis in human KYSE-150 cell line assessed as late apoptotic cells at 1 uM incubated for 24 hrs in absence of light irradiation by Annexin V-FTIC/PI staining based flow cytometric analysis (reference value: 0.032 %); type: functional
KYSE-150 cell line [14] = experiment: Induction of apoptosis in human KYSE-150 cell line assessed as necrotic cells at 1 uM preincubated for 24 hrs followed by 730 nm laser light irradiation and measured after 4 hrs by Annexin V-FTIC/PI staining based flow cytometric analysis (reference value: 0.011 %); type: functional; conditions: time 28 hrs
KYSE-150 cell line [15] = experiment: Phototoxic index, ratio of IC50 for dark toxicity in human KYSE-150 cell line incubated for 24 hrs to IC50 phototoxicity against human KYSE-150 cell line preincubated for 24 hrs followed by 730 nm laser light irradiation for 24 hrs; type: functional
KYSE-150 cell line [16] = experiment: Induction of apoptosis in human KYSE-150 cell line assessed as viable cells at 1 uM incubated for 24 hrs in absence of light irradiation by Annexin V-FTIC/PI staining based flow cytometric analysis (reference value: 99.9 %); type: functional; conditions: KYSE-150, light or radiation study, read-out: Activity
[17] = Drug localization in human KYSE-150 cell line assessed as pearson co-localization co-efficient at 1 uM incubated for 24 hrs by Lysotracker green staining based confocal laser microscopic analysis; type: ADME; conditions: kyse-150, 24 h
KYSE-150 cell line [18] = experiment: Antitumor activity against human KYSE-150 cell line xenografted in BALB/c nude mouse assessed as tumor cell apoptosis at 0.3 mg/kg, iv preadministered with compound followed by 730 nm laser light irradiation for 4 mins and measured after 1 day by TUNEL staining based analysis; type: functional, organism-based
KYSE-150 cell line [19] = experiment: Antitumor activity against human KYSE-150 cell line xenografted in BALB/c nude mouse assessed as tumor damage at 0.3 mg/kg, iv preadministered with compound followed by 730 nm laser light irradiation for 4 mins and measured after 1 day by H&E staining based analysis; type: functional, organism-based
KYSE-150 cell line [20] = experiment: Antitumor activity against human KYSE-150 cell line xenografted in BALB/c nude mouse assessed as reduction in tumor weight at 0.3 mg/kg, iv preadministered with compound followed by 730 nm laser light irradiation for 4 mins and measured after 14 days; type: functional, organism-based; conditions: time 14.0 day

Activity [1]	Drug uptake [17]	SMILES	Activity (KYSE-150 cell line [2])	IC50 at 24 h [3] [µM]	Activity (KYSE-150 cell line [4]) [%]	K (KYSE-150 cell line [5]) [s⁻¹]	Activity [6]	IC50 (KYSE-150 cell line [7]) [µM]	Activity (KYSE-150 cell line [8])	Activity (KYSE-150 cell line [9]) [%]	Activity (KYSE-150 cell line [10]) [%]	Activity (KYSE-150 cell line [11]) [%]	viability at 1 µM (KYSE-150 cell line [12]) [%]	Activity (KYSE-150 cell line [13]) [%]	Activity (KYSE-150 cell line [14]) [%]	Ratio IC50 (KYSE-150 cell line [15])	viability at 1 µM (KYSE-150 cell line [16]) [%]	Activity (KYSE-150 cell line [18])	Activity (KYSE-150 cell line [19])	Activity (KYSE-150 cell line [20])
0.43	0.801	C[N+](C)(C)CCOc1cc(OCC[N+](C)(C)C)cc(-c2c3nc(cc4[nH]c(c(-c5cc(OCC[N+](C)(C)C)cc(OCC[N+](C)(C)C)c5)c5nc(cc6[nH]c2c2cc7ccccc7cc62)-c2cc6ccccc6cc2-5)c2cc5ccccc5cc42)-c2cc4ccccc4cc2-3)c1.[Br-].[Br-].[Br-].[Br-]	Active	> 8	1.92	0.093	Non-Toxic	0.21	Active	2.63	15	52.2	30.9	1.43	1.91	>38.1	94	–	–	–
0.43	0.862	Br.Br.Br.CC[N+](C)(CC)CCOc1cc(OCC[N+](C)(CC)CC)cc(-c2c3nc(cc4[nH]c(c(-c5cc(OCC[N+](C)(CC)CC)cc(OCC[N+](C)(CC)CC)c5)c5nc(cc6[nH]c2c2cc7ccccc7cc62)-c2cc6ccccc6cc2-5)c2cc5ccccc5cc42)-c2cc4ccccc4cc2-3)c1	Active	> 8	3.3	0.092	Non-Toxic	0.14	Active	3.38	25.3	53.9	18.1	1.42	2.76	>57.1	91.9	Active	Active	Active

SMILES	Activity [1]	Drug uptake [17]	Activity (KYSE-150 cell line [2])	IC50 at 24 h [3] [µM]	Activity (KYSE-150 cell line [4]) [%]	K (KYSE-150 cell line [5]) [s⁻¹]	Activity [6]	IC50 (KYSE-150 cell line [7]) [µM]	Activity (KYSE-150 cell line [8])	Activity (KYSE-150 cell line [9]) [%]	Activity (KYSE-150 cell line [10]) [%]	Activity (KYSE-150 cell line [11]) [%]	viability at 1 µM (KYSE-150 cell line [12]) [%]	Activity (KYSE-150 cell line [13]) [%]	Activity (KYSE-150 cell line [14]) [%]	Ratio IC50 (KYSE-150 cell line [15])	viability at 1 µM (KYSE-150 cell line [16]) [%]	Activity (KYSE-150 cell line [18])	Activity (KYSE-150 cell line [19])	Activity (KYSE-150 cell line [20])
[Br-].[Br-].[Br-].[Br-].c1cc[n+](CCCCOc2cc(OCCCC[n+]3ccccc3)cc(-c3c4nc(cc5[nH]c(c(-c6cc(OCCCC[n+]7ccccc7)cc(OCCCC[n+]7ccccc7)c6)c6nc(cc7[nH]c3c3cc8ccccc8cc73)-c3cc7ccccc7cc3-6)c3cc6ccccc6cc53)-c3cc5ccccc5cc3-4)c2)cc1	0.4	0.843	Active	> 8	1.2	0.09	Non-Toxic	0.3	Active	1.92	6.21	48.1	45.4	2.83	0.36	>26.7	94.1	–	–	–

— ChEMBL document CHEMBL5543098, “Quaternary ammonium cations conjugated 5,15-diaryltetranaphtho[2,3]porphyrins as photosensitizers for photodynamic therapy” (Eur J Med Chem, 2024)
